Source: BindingDB's records for patent US11964990 (Abbvie, 2024)

Legend:
Bcl-2-like protein 1 = Bcl-2-like protein 1 (Homo sapiens, UniProt Q07817); test: Time Resolved-Fluorescence Resonance Energy Transfer (TR-FRET) Assay
Protocol: (§1) [Bcl-2 protein or Bcl-xL protein], [Probe], [Antibody],Protein Probe nM nM Antibody nMGST- F-Bak 1 100 Tb-anti- 1Bcl- Acetyl-(SEQ GST 2 ID NO: 3)-NH2The samples were then mixed on a shaker for 1 minute and equilibrated for an additional 3 hours at room temperature. For each assay plate, a probe/antibody and protein/antibody/probe mixture were included as a negative and a positive control, respectively. Fluorescence was measured on the Envision (Perkin Elmer) using a 340/35 nm excitation filter and 520/525 (F-Bak) and 495/510 nm (Tb-labeled anti-GST antibody) emission filters. Inhibition constants (Ki) were determined using Wang's equation (Wang FEBS Lett. 1995, 360, 111-114). The TR-FRET assay can be performed in the presence of varying concentrations of human serum (HS) to determine apparent half maximal inhibitory concentration (IC50) after HS protein binding.

[1] = target: Apoptosis regulator Bcl-2 (Homo sapiens, UniProt P10415); test: as above
Sequence of Apoptosis regulator Bcl-2 (P10415 whole entry): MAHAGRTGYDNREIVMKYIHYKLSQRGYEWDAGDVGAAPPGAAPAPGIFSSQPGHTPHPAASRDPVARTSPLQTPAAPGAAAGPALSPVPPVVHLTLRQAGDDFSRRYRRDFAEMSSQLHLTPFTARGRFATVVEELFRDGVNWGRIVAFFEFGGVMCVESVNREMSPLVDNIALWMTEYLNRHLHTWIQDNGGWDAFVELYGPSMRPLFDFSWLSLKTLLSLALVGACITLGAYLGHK
Protocol: as §1

Sequence of Bcl-2-like protein 1 (Q07817 whole entry): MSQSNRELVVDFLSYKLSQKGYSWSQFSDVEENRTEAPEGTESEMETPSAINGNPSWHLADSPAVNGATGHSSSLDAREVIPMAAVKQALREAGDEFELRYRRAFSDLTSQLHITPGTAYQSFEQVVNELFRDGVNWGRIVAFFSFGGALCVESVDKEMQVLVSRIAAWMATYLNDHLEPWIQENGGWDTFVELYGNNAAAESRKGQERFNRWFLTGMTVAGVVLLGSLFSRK

`C[C@@H]1CC[C@H](CNc2ccc(S(=O)(=O)NC(=O)c3ccc(N4CCN5CC6=C(c7ccc(Cl)cc7)CC(C)(C)C[C@H]6OCCCOC[C@@H]5C4)cc3N3CCCOc4nc5[nH]ccc5cc43)cc2[N+](=O)[O-])OC1` [US11964990, Example 21] was tested. Which Ki (Bcl-2-like protein 1) did it give?
The Ki was 0.0589 µM.

What about the Ki [1] of the same compound?
Its Ki is 0.000521 µM.
